Source: patent publication US11249161B2, “Magnetic resonance method for detecting molecular binding with enhanced sensitivity” (The Johns Hopkins University, priority 2017, dated 2022)

Assays:
[1] = target: bovine serum albumin (BSA) (Bos taurus, UniProt P02769)
Source text: (§1) Maps were generated by mapping the signal difference (pre minus post infusion) between the partial spectra (−1.0 to −2.0 ppm). Field correction for static field (B0) inhomogeneities was done by creating field maps from the low power Z-spectra acquired in our study and shifting the Z-spectra voxel wise according to the WASSR method^27.

mouse brain = assay: In vivo IMMOBILISE MRI in mice after caffeine infusion
Method: All experiments were performed in accordance with Institutional Animal Care and Use Committee guidelines and approved by the Johns Hopkins University Animal Care and Use Committee. Eight 6-8 week old female BALB/c mice, were anesthetized by isoflurane and kept warm with a heating pad and kept in place with a stereotactic holder. […] A home-built catheter was connected to a syringe infusion through PE-50 tubing.
MRI experiments were acquired on a 11.7 T Bruker Biospec preclinical scanner (Bruker, Ettlingen, Germany) equipped with a 72 mm quadrature volume resonator for RF transmission and a 2×2 mouse phased array coil for RF reception. The saturation preparation consisted of a 3 s, 0.5 μT CW saturation pulse followed by a two-shot FSE readout. The FSE readout parameters were TR/TE=6000/4 ms, a 64×64 acquisition matrix across a field of view of 17×17 mm and slice thickness of 1 mm. […] Acquisition of each partial Z-spectra took 105 s and was continued for 1-hour post bolus and then a complete Z-spectrum was again acquired.
as §1

Sequence of bovine serum albumin (BSA) (P02769 25-607): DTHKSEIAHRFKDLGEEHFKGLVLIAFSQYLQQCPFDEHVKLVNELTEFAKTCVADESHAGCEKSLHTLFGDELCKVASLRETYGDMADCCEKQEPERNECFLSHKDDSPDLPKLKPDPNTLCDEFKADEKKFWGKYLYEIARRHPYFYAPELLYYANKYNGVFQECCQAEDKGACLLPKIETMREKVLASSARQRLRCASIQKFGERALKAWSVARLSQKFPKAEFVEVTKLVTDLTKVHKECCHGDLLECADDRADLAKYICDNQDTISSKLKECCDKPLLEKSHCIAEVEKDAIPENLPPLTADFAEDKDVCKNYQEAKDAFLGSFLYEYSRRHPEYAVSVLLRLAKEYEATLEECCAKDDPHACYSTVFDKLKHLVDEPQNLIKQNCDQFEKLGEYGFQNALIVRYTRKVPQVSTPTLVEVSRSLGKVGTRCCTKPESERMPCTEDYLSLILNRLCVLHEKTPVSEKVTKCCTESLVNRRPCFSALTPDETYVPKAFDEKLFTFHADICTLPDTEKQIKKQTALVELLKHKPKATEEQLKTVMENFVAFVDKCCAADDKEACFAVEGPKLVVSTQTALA

In the case of `Cn1c(=O)c2c(ncn2C)n(C)c1=O` [caffeine], the “factor in sensitivity enhancement” value [1] is reported as ~1000, the “concentration of caffeine in mouse blood (estimate)” value (mouse brain; 2 mL blood, 50 μL of 100 mM caffeine infused) is reported as “about 2.5 mM” and the “change in water signal (detection sensitivity)” value (mouse brain; mice, after caffeine infusion, about 2.5 mM in blood) is reported as 1-3%. The factor of enhancement (mouse brain; mice, in vivo) was 30-100.
